Literature values, collected in patent US8551986B2, “Treatment of sequelae of psychiatric disorders” (The McLean Hospital Corporation, priority 2005, dated 2013).

Conditions: human studies, all but one study; cited from earlier work

Structure (SMILES) | caloric intake
C=C1CC[C@@]2(O)[C@H]3Cc4ccc(O)c5c4[C@@]2(CCN3CC2CC2)[C@H]1O5 [nalmefene] | significant decreases
O=C1CC[C@@]2(O)[C@H]3Cc4ccc(O)c5c4[C@@]2(CCN3CC2CC2)[C@H]1O5 [naltrexone] | significant decreases
